Reference: patent US20250313555A1, “2-SUBSTITUTED THIAZOLE AND BENZOTHIAZOLE COMPOSITIONS AND METHODS AS DUX4 INHIBITORS” (ALTAY THERAPEUTICS, INC., priority 2022, published 2025)

These compounds were tested on MBD3L2 RNA (assay: RNA isolation and qPCR to determine MBD3L2 RNA levels in FSHD cells). Conditions: 48 hrs.
Assay type: cell-based
Procedure, shortened: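 FSHD cells were treated one day after seeding with a DUX4 inhibitor (11 μM or 3.6 μM) for 48 h. Total RNA was DNase-treated and reverse-transcribed with random hexamers and M-MLV. MBD3L2 was quantified by SYBR Green qPCR in triplicate against EEF1A as the reference gene.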

`O=C(NCCCN1C(=O)CCC1=O)c1ccc(-c2nc3ccccc3s2)cc1` [Compound 7] was tested. Which “qPCR MBD3L2 Inhib at 11 µM” value did it give?
Its value is “YES”.

For `O=C(CCN1CCCC1=O)Nc1ccc(Cc2nc3ccccc3s2)cc1` [Compound 8], which “qPCR MBD3L2 Inhib at 11 µM” value is on record?
Its value is “YES”.

For `O=C(NCCc1cncnc1)c1ccc(-c2nc3ccccc3s2)cc1` [Compound 11], which “qPCR MBD3L2 Inhib at 11 µM” value is on record?
The value was “YES”.

Which “qPCR MBD3L2 Inhib at 11 µM” value does the source give for `O=C(NCCN1C(=O)CCC1=O)c1ccc(-c2nc3ccccc3s2)cc1` [Compound 22] here?
Its value is “YES”.

How did the “qPCR MBD3L2 Inhib at 11 µM” value turn out when `CC(=O)CCCCC(=O)Nc1ccc(-c2nccs2)cc1` [Compound 23] was run?
Its value is “YES”.

`CC(=O)NCCCC(=O)NC1CCC(c2nc3ccccc3s2)CC1` (stereo not drawn) [Compound 28] was tested. Which “qPCR MBD3L2 Inhib at 11 µM” value did it give?
The value was “YES”.

`O=C(CCCc1cnco1)Nc1ccc(Cc2nc3ccccc3s2)cc1` [Compound 66] was tested. Which “qPCR MBD3L2 Inhib at 11 µM” value did it give?
Its value is “YES”.

How did the “qPCR MBD3L2 Inhib at 11 µM” value turn out when `CC(=O)NCCCC(=O)Nc1ccc(-c2nccs2)cc1` [Compound 70] was run?
The value was “YES”.

Which “qPCR MBD3L2 Inhib at 11 µM” value does the source give for `CC(=O)NCCCC(=O)Nc1cccc(-c2nc3ccccc3s2)c1` [Compound 71] here?
The value was “YES”.

How did the “qPCR MBD3L2 Inhib at 11 µM” value turn out when `CC(=O)NCCCC(=O)Nc1cc(C)cc(-c2nc3ccccc3s2)c1` [Compound 72] was run?
Its value is “YES”.

For `O=C(CCCN1C(=O)CCC1=O)NC1CC(c2nc3ccccc3s2)C1` (stereo not drawn) [Compound 89], which “qPCR MBD3L2 Inhib at 11 µM” value is on record?
Its value is “YES”.

How did the “qPCR MBD3L2 Inhib at 11 µM” value turn out when `O=C(CCCN1C(=O)CCC1=O)NC1CCC(c2nc3ccccc3s2)C1` (stereo not drawn) [Compound 90] was run?
Its value is “YES”.

With `O=C(CCCN1C(=O)CCC1=O)NCCCc1nc2ccccc2s1` [Compound 91] as the compound, how does the “qPCR MBD3L2 Inhib at 11 µM” value read?
The value was “YES”.

With `O=C(CCCN1C(=O)CCC1=O)NC1CCCC1c1nc2ccccc2s1` (stereo not drawn) [Compound 92] as the compound, how does the “qPCR MBD3L2 Inhib at 11 µM” value read?
The value was “YES”.

How did the “qPCR MBD3L2 Inhib at 11 µM” value turn out when `O=C(CCCN1C(=O)CCC1=O)N[C@H]1C[C@@H](c2nc3ccccc3s2)C1` [Compound 97] was run?
The value was “YES”.

How did the “qPCR MBD3L2 Inhib at 11 µM” value turn out when `CC(=O)NCCCC(=O)Nc1cc(Cl)cc(-c2nc3ccccc3s2)c1` [Compound 101] was run?
Its value is “YES”.

How did the “qPCR MBD3L2 Inhib at 11 µM” value turn out when `CC(=O)NCCCC(=O)Nc1cc(Cl)cc(-c2nc3cc(F)ccc3s2)c1` [Compound 102] was run?
Its value is “YES”.

How did the “qPCR MBD3L2 Inhib at 11 µM” value turn out when `CC(=O)NCCCC(=O)NCCCc1nc2ccccc2s1` [Compound 106] was run?
Its value is “YES”.

How did the “qPCR MBD3L2 Inhib at 11 µM” value turn out when `CC(=O)NCCCC(=O)Nc1nc2ccccc2s1` [Compound 107] was run?
Its value is “YES”.

For `O=C(CCCN1C(=O)CCC1=O)Nc1nc2ccccc2s1` [Compound 108], which “qPCR MBD3L2 Inhib at 11 µM” value is on record?
Its value is “YES”.

How did the “qPCR MBD3L2 Inhib at 11 µM” value turn out when `CC(C)(NC(=O)CCCN1CCCC1=O)c1ccc(-c2nc3ccccc3s2)cc1` [Compound 110] was run?
The value was “YES”.

For `CC(=O)NCCCC(=O)N[C@H]1C[C@H](c2nc3ccccc3s2)C1` [Compound 112], which “qPCR MBD3L2 Inhib at 11 µM” value is on record?
The value was “YES”.

`CC(=O)NCCCC(=O)N[C@H]1C[C@@H](c2nc3ccccc3s2)C1` [Compound 113] was tested. Which “qPCR MBD3L2 Inhib at 11 µM” value did it give?
The value was “YES”.

`CC(=O)NCCCC(=O)N[C@@H]1CC[C@H](c2nc3ccccc3s2)C1` [Compound 114] was tested. Which “qPCR MBD3L2 Inhib at 11 µM” value did it give?
The value was “YES”.

Which “qPCR MBD3L2 Inhib at 11 µM” value does the source give for `CC(=O)NCCCC(=O)N[C@H]1CC[C@H](c2nc3ccccc3s2)C1` [Compound 115] here?
The value was “YES”.

How did the “qPCR MBD3L2 Inhib at 11 µM” value turn out when `O=C(CCCN1CCCC1=O)NC1CCCC1c1nc2ccccc2s1` (stereo not drawn) [Compound 117] was run?
The value was “YES”.

How did the “qPCR MBD3L2 Inhib at 11 µM” value turn out when `O=C(CCCN1CCCC1=O)NCCCc1nc2ccccc2s1` [Compound 118] was run?
Its value is “YES”.

With `O=C(Cc1ccc(-c2nc3ccccc3s2)cc1)NCCN1CCCC1=O` [Compound 119] as the compound, how does the “qPCR MBD3L2 Inhib at 11 µM” value read?
The value was “YES”.

Which “qPCR MBD3L2 Inhib at 11 µM” value does the source give for `C=C(C)NCCC(=C)Nc1cc(C)cc(Cc2nc3ccccc3s2)c1` [Compound 120] here?
Its value is “YES”.

`CC(=O)NCCCC(=O)Nc1nc(-c2ccccc2)cs1` [Compound 126] was tested. Which “qPCR MBD3L2 Inhib at 11 µM” value did it give?
Its value is “YES”.

How did the “qPCR MBD3L2 Inhib at 11 µM” value turn out when `CC(=O)NC1CCC(C(=O)Nc2nc3ccccc3s2)C1` (stereo not drawn) [Compound 131] was run?
Its value is “YES”.

With `CC(=O)NC1CCC(C(=O)N[C@H]2CC[C@H](c3nc4ccccc4s3)CC2)C1` (stereo partly drawn) [Compound 134] as the compound, how does the “qPCR MBD3L2 Inhib at 11 µM” value read?
Its value is “YES”.

`CC(=O)NCCCc1nc(CCCC(=O)Nc2ccc(-c3nc4cc(F)ccc4s3)cc2)co1` [Compound 138] was tested. Which “qPCR MBD3L2 Inhib at 11 µM” value did it give?
The value was “YES”.

With `CN(C(=O)CCCN1C(=O)CCC1=O)c1ccc(-c2nc3cc(F)ccc3s2)cc1` [Compound 144] as the compound, how does the “qPCR MBD3L2 Inhib at 11 µM” value read?
Its value is “YES”.

Which “qPCR MBD3L2 Inhib at 11 µM” value does the source give for `CC(=O)NCCCNC(=O)c1ccc(-c2nc3ccccc3s2)o1` [Compound 149] here?
Its value is “YES”.

With `O=C(CCCCN1C(=O)CCC1=O)N[C@H]1CC[C@@H](c2nc3ccccc3s2)CC1` [Compound 151] as the compound, how does the “qPCR MBD3L2 Inhib at 11 µM” value read?
The value was “YES”.

How did the “qPCR MBD3L2 Inhib at 11 µM” value turn out when `O=C(CCCc1cccnc1)NC1CCC(c2nc3ccccc3s2)C1` (stereo not drawn) [Compound 157] was run?
The value was “YES”.

For `O=C(CCCN1C(=O)CCC1=O)NC1CCC(Cc2nc3ccccc3s2)C1` (stereo not drawn) [Compound 158], which “qPCR MBD3L2 Inhib at 11 µM” value is on record?
The value was “YES”.

Which “qPCR MBD3L2 Inhib at 11 µM” value does the source give for `O=C(CCCN1C(=O)CCC1=O)N[C@H]1CC[C@H](c2nc3ccccc3s2)C1` [Compound 161] here?
Its value is “YES”.

For `O=C(CCCN1C(=O)CCC1=O)N[C@@H]1CC[C@@H](c2nc3ccccc3s2)C1` [Compound 162], which “qPCR MBD3L2 Inhib at 11 µM” value is on record?
The value was “YES”.

With `O=C(CCCc1cccnc1)N[C@H]1CC[C@@H](c2nc3ccccc3s2)CC1` [Compound 163] as the compound, how does the “qPCR MBD3L2 Inhib at 11 µM” value read?
The value was “YES”.

`O=C(CCCc1cccnc1)N[C@H]1CC[C@H](c2nc3ccccc3s2)CC1` [Compound 164] was tested. Which “qPCR MBD3L2 Inhib at 11 µM” value did it give?
Its value is “YES”.

For `CN(C(=O)CCCN1C(=O)CCC1=O)c1ccc(Cc2nc3ccccc3s2)cc1` [Compound 169], which “qPCR MBD3L2 Inhib at 11 µM” value is on record?
Its value is “YES”.

`CC(=O)NCCCC(=O)N[C@H]1CC[C@@H](Cc2nc3ccccc3s2)CC1` [Compound 171] was tested. Which “qPCR MBD3L2 Inhib at 11 µM” value did it give?
Its value is “YES”.

With `CC(=O)NCCCC(=O)N[C@H]1CC[C@H](Cc2nc3ccccc3s2)CC1` [Compound 172] as the compound, how does the “qPCR MBD3L2 Inhib at 11 µM” value read?
The value was “YES”.

How did the “qPCR MBD3L2 Inhib at 11 µM” value turn out when `CC(=O)NCCCNC(=O)C12CCC(c3nc4ccccc4s3)(CC1)CC2` [Compound 173] was run?
The value was “YES”.

For `CN(C(=O)CCC1CCC(=O)N1)c1ccc(-c2nc3ccccc3s2)cc1` (stereo not drawn) [Compound 177], which “qPCR MBD3L2 Inhib at 11 µM” value is on record?
The value was “YES”.

`O=C(CCC1CCC(=O)N1)Nc1ccc(Cc2nc3ccccc3s2)cc1` (stereo not drawn) [Compound 178] was tested. Which “qPCR MBD3L2 Inhib at 11 µM” value did it give?
The value was “YES”.

`O=C(CCC1CCC(=O)N1)Nc1ccc(-c2nc3ccccc3s2)o1` (stereo not drawn) [Compound 179] was tested. Which “qPCR MBD3L2 Inhib at 11 µM” value did it give?
The value was “YES”.

With `CC(=O)N[C@@H]1CC[C@H](C(=O)Nc2nc3ccccc3s2)C1` [Compound 182] as the compound, how does the “qPCR MBD3L2 Inhib at 11 µM” value read?
Its value is “YES”.

With `CC(=O)N[C@H]1CC[C@@H](C(=O)Nc2nc3ccccc3s2)C1` [Compound 183] as the compound, how does the “qPCR MBD3L2 Inhib at 11 µM” value read?
The value was “YES”.

`CC(=O)N[C@@H]1CC[C@@H](C(=O)Nc2nc3ccccc3s2)C1` [Compound 185] was tested. Which “qPCR MBD3L2 Inhib at 11 µM” value did it give?
Its value is “YES”.

Which “qPCR MBD3L2 Inhib at 11 µM” value does the source give for `CC(=O)NCCCNC(=O)c1cc(C#N)cc(-c2nc3cc(F)ccc3s2)c1` [Compound 188] here?
The value was “YES”.

What follows are compounds tested on MB200 cells (assay: Cell cytotoxicity 50 assay (CC50), MB200 cells, cell titer glo). Conditions: 72 h.
Assay type: cell-based
Procedure, shortened: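 Luminescence from CellTiter-Glo after 72 h of compound exposure at 37 °C gave the CC50 for MB200 cells. These were plated at 10 k cells/well in triplicate in supplemented F10 medium and treated with a serial dilution series prepared from a 10 mM stock.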

Which CC50 does the source give for `O=C(CCCN1C(=O)CCC1=O)Nc1nc2ccccc2s1` [Compound 108] here?
Its CC50 is > 10 µM.

`O=C(CCCN1C(=O)CCC1=O)N[C@H]1CC[C@H](c2nc3ccccc3s2)C1` [Compound 161] was tested. Which CC50 did it give?
Its CC50 is > 10 µM.

Each compound was assayed on HEK (assay: Cell cytotoxicity 50 assay (CC50), HEK cells). Conditions: not given.
Assay type: cell-based
Procedure, shortened: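 CC50 was fitted from total luminescence, measured 5 min after adding CellTiter-Glo reagent to HEK cells. The cells had been exposed for 72 h at 37 °C to medium serial dilutions prepared from a 10 mM drug solution.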

With `O=C(CCCN1C(=O)CCC1=O)Nc1nc2ccccc2s1` [Compound 108] as the compound, how does the CC50 read?
The CC50 was > 10 µM.

How did the CC50 turn out when `O=C(CCCN1C(=O)CCC1=O)N[C@H]1CC[C@H](c2nc3ccccc3s2)C1` [Compound 161] was run?
Its CC50 is > 10 µM.
